Consider one molecule from patent US20250057748A1, “FORMULATIONS OF DIHYDROKAEMPFEROL” (DEBUT BIOTECHNOLOGY, INC., priority 2023, published 2025).

In one assay the test system is Sirtuin-1. Particulars: reduces oxidative stress and inflammatory response; Zhang et al. 2021; cited from earlier work.
For assay [1], the system named is Human dermal fibroblasts (hDF). Kind of assay: Wound healing: fibroblast regrowth after insert removal, image analysis. Particulars: 0.003% DHK. The class given is cell-based. The protocol: Human dermal fibroblasts (hDF) were plated in the presence of a growth-preventing insert. The insert was subsequently removed and regrowth measured by image analysis.
A further assay relates to Loricrin. As to the kind of experiment: Skin barrier marker by flow cytometry in hDF. The class given is cell-based, Human. Particulars: 0.003% DHK. The protocol:
(§1) Human dermal fibroblasts (hDF) were treated with test article of interest. Barrier markers of interest were measured by flow cytometry.
(A flow cytometer gives signals particle by particle.)

The subject of a further assay is Filaggrin. As to the kind of experiment: Skin barrier marker by flow cytometry in hDF. The class given is cell-based, Human. As to conditions: 0.003% DHK. The protocol:
as §1

Assay [2] is described as follows: ABTS antioxidant assay (aqueous medium). The class given is biochemical. The text has this:
The 2,2′-Azinobis [3-ethylbenzothiazoline-6-sulfonic acid]-diammonium salt (ABTS) antioxidant assay is designed to evaluate the antioxidant activity of compositions comprising dihydrokaempferol in an aqueous medium.
ABTS+ solution is generated as a free radical and used to measure relative ability of a compound to scavenge free radicals. Reduction of the absorbance at 734 nm was standardized to solvent control as an indication of ABTS+ scavenging.

A further assay has as its system glycation. As to the kind of experiment: Glycation inhibition assay. The class given is biochemical. The protocol: The assay was conducted to evaluate the glycation inhibition activity of compositions comprising dihydrokaempferol.
Nonenzymatic glycation can occur when glucose reacts with proteins, forming a Schiff base intermediate that subsequently undergoes Amadori rearrangement to form glycosylated proteins, when they react with skin proteins to form Advanced Glycation End products (AGE). AGE formation can result in loss of skin elasticity and impaired cellular function. The glycation inhibition ability of a compound is measured by change in fluorescence at excitation/emission of 360 nm/420 nm relative to solvent control.

The nature of assay [3]: DPPH antioxidant activity assay (organic medium). The class given is biochemical. The source says: The 2,2-diphenyl-1-picrylhydrazyl (DPPH) antioxidant assay is designed to evaluate the antioxidant activity of compositions comprising dihydrokaempferol in an organic medium. 2,2-diphenyl-1-picrylhydrazyl (DPPH) is a stable free radical used to evaluate free radical scavenging capacity of a material. In the presence of an antioxidant DPPH is reduced, resulting in the formation of a colorless solution. Reduction of absorbance at 517 nm is standardized to solvent control as an indication of DPPH scavenging.
(In general: DPPH is a stable violet radical that fades when it is reduced.)

For the molecule `O=C1c2c(O)cc(O)cc2O[C@H](c2ccc(O)cc2)[C@H]1O` [dihydrokaempferol], in the assay with Sirtuin-1, the “Effect on Sirtuin-1” value is reported as “upregulates”. Further, the “Closure Rate 24 hr” value in assay [1] (24 hr) is recorded as 4.17. Moreover, the “Closure Rate 48 hr” value in assay [1] (48 hr) is listed as 9.40. The “% Total Population” value was 19.3% in the assay on Loricrin and 42.2% in the assay on Filaggrin. Also, the “% Radical Inhibition” value in assay [2] (ABTS, 0.00625 % w/w) is given as 32.55%; in assay [2] (ABTS, 0.0125 % w/w), 42.49%; in assay [2] (ABTS, 0.025 % w/w), 56.17%; in assay [3] (DPPH, 0.016 % w/w), 16.54%; in assay [3] (DPPH, 0.031 % w/w), 31.00%; in assay [3] (DPPH, 0.063 % w/w), 61.12%. Further, the IC50 antioxidant activity in assay [2] (ABTS, aqueous solvent system, calculated) was 0.0143 % w/w; in assay [3] (DPPH, organic solvent system, calculated), 0.05 % w/w. For the same molecule, the “Lowest concentration with antioxidant activity” value in assay [2] (aqueous systems) is 0.00625 % w/w; in assay [3] (organic solvent systems), 0.016 % w/w. For the same molecule, the “Lowest concentration inhibiting glycation” value in the assay on glycation is 0.004 % w/w. Further, the “% Glycation Inhibition” value turned out to be 25.05% in the assay with glycation (0.004 % w/w), 42.23% with glycation (0.011 % w/w), 64.87% in the assay on glycation (0.033 % w/w) and 82.42% in the assay with glycation (0.100 % w/w). Further, the IC50 glycation inhibition in the assay on glycation (calculated) is 0.016 % w/w.
